Data as given in US5705336A, “Assay for sensitivity of tumors to DNA-platinating chemotherapy” (The United States of America as represented by the …, priority 1995, dated 1998).

Experiments:
MOLT-4 [1] = conditions: removed in 6 hrs following a 1 hr, 10 μM exposure, taken from ref. 26; cited from earlier work
H9 [2] = conditions: removed in 6 hrs following a 1 hr, 10 μM exposure, taken from ref. 26; cited from earlier work
MOLT-4 [3] = conditions: platination level that reduces CAT activity to 37% of control, taken from ref. 26; cited from earlier work
HuT 78 [4] = assay: inhibition of growth of HuT 78 cells, 3 day continuous cisplatin exposure; type: cell-based, human; conditions: continuous exposure to cisplatin for 3 days, 50% reduction in cell number
Protocol: (§1) The expression of total ERCC1 mRNA, exon VIII^- mRNA and XPA mRNA was examined in three human T lymphocyte cell lines (HuT 78, H9 and MOLT-4), using essentially the methods described in Example 1. The cells were obtained from the American Type Culture Collection, Rockville, Md. Cells were cultured in RPMI-1640 medium supplemented with 10% heat-inactivated calf serum, 100 μg/ml penicillin, 100 μg/ml streptomycin and 2 mM glutamine.
(§2) All cell lines were assayed for sensitivity to cisplatin by measurement of the inhibition of growth following 3 day cisplatin exposures ranging from 0.5 to 100 μM. Cell lines were seeded at an initial cell density of 5×10^4 cells/ml, After continuous contact with drug for 3 days, cell counts obtained by Coulter counter were expressed as a percentage of counts obtained from aliquots of control cells, cultured in the absence of drug. Cells treated similarly but for the absence of drug served as controls. IC50 values were assessed as those drug levels effecting a 50% reduction in cell number as compared to Untreated cells.

H9 [5] = conditions: platination level that reduces CAT activity to 37% of control, taken from ref. 26; cited from earlier work
MOLT-4 [6] = assay: inhibition of growth of MOLT-4 cells, 3 day continuous cisplatin exposure; type: cell-based, human; conditions: continuous exposure to cisplatin for 3 days, 50% reduction in cell number
Protocol: as §1, §2

HuT 78 [7] = conditions: platination level that reduces CAT activity to 37% of control, taken from ref. 26; cited from earlier work
H9 [8] = assay: inhibition of growth of H9 cells, 3 day continuous cisplatin exposure; type: cell-based, human; conditions: continuous exposure to cisplatin for 3 days, 50% reduction in cell number
Protocol: as §1, §2

HuT 78 [9] = conditions: removed in 6 hrs following a 1 hr, 10 μM exposure, taken from ref. 26; cited from earlier work
[10] = system: three human T lymphocyte cell lines (HuT 78, H9 and MOLT-4); assay: cisplatin sensitivity compared across the three T cell lines; type: cell-based; conditions: across HuT 78, H9 and MOLT-4
Protocol: as §1, §2

N.N.[Cl][Pt][Cl] [cisplatin]
Cellular DNA Repair (pg Pt/μg DNA removed in 6 hrs) (MOLT-4 [1]): 2.3 pg Pt/μg DNA
Cellular DNA Repair (pg Pt/μg DNA removed in 6 hrs) (H9 [2]): 3.9 pg Pt/μg DNA
Reactivation of platinated plasmid Bo (MOLT-4 [3]): 13 adducts/plasmid
IC50 (HuT 78 [4]): 830 nM
Reactivation of platinated plasmid Bo (H9 [5]): 18 adducts/plasmid
IC50 (MOLT-4 [6]): 330 nM
Reactivation of platinated plasmid Bo (HuT 78 [7]): 22 adducts/plasmid
IC50 (H9 [8]): 450 nM
Cellular DNA Repair (pg Pt/μg DNA removed in 6 hrs) (HuT 78 [9]): 5.6 pg Pt/μg DNA
cisplatin sensitivity varied by [10]: about 3 fold
